PMC7794397, “Curbing gastrointestinal infections by defensin fragment modifications without harming commensal microbiota” (Communications Biology, 2021)
≈ marks a conversion by molar mass, not a printed value. Read-outs that look alike come from different tables or passages of the source. Positions of bridges follow the written chain, without caps; N, C: chain ends. Non-standard residues stand in square brackets, D forms with d. Residues, ends and D or L forms follow the SMILES beside them. *: point of attachment. Palmitoyl = CCCCCCCCCCCCCCCC(=O)*; X3 = CC[C@H](C)CCCCC(=O)*; Dab = NCC[C@H](N)C(=O)O

Tests used:
A. baumannii = assay: Antibiogram of ESKAPE pathogens; type: cell-based; conditions: column assigned by order in flattened table
Description: (§1) Supplementary Table 1. Antibiogram of ESKAPE pathogens used in this study.
(§2) Bacteria susceptible to all (blue color) or intermediate/resistant to at least one (red color) of antibiotics per class following the EUCAST breakpoints. Black color is shown if the susceptibility to agents in that class is not assessed. Values are minimal inhibition concentrations (MIC) in µg/ml or for Chloramphenicol in diameter (mm). […]

E. coli = assay: Antibiogram of ESKAPE pathogens; type: cell-based; conditions: column assigned by order in flattened table; for MIC: Escherichia coli
Description: as §1, §2

ESKAPE pathogens = assay: organism not typed; conditions: one strain of A. baumannii, P. aeruginosa or E. coli, not assignable
Description: as §1, §2

K. pneumoniae = conditions: one K. pneumoniae strain, which one not assignable
Description: as §1, §2

S. Typhimurium = type: cell-based; conditions: for diameter of inhibition zone: 1 µg peptide/well, 2.5 mm = empty well; for inhibition of S. Typhimurium growth (in words): radial diffusion assay
Protocol: (§3) Antimicrobial activity was analyzed by radial diffusion assay. Log-phase bacteria were cultivated for up to 18 h in TSB (TSB, Becton Dickinson, USA), washed and diluted to 4 × 10^6 CFU in 10 ml agar. Bacteria were incubated in 10 ml of 10 mM sodium phosphate, pH 7.4, containing 0.3 mg/ml of TSB powder and 1% (w/v) low EEO-agarose (AppliChem). 1 µg of each lipopeptide was pipetted into punched wells in a final volume of 4 µl and diffused into the gel for 3 h at 37 °C. After that, a nutrient-rich gel with 6% TSB (w/v) and 1% agarose in 10 mM sodium phosphate buffer was poured on top of the first gel and incubated for up to 24 h at 37 °C. Then the diameter of inhibition zones was measured.

C. rodentium = type: cell-based; conditions: 1 µg peptide/well, 2.5 mm = empty well
Protocol: as §3

S. aureus = type: cell-based; conditions: 1 µg peptide/well, 2.5 mm = empty well
Protocol: as §3

P. aeruginosa = type: cell-based; conditions: 1 µg peptide/well, 2.5 mm = empty well
Protocol: as §3

[1] = tested on: multidrug resistant bacteria belonging to the ESKAPE pathogen panel; type: cell-based; conditions: broth microdilution, ESKAPE panel
Protocol: Bactericidal activity was assessed by broth microdilution assay. […] After incubation, 100 µl of 6% TSB (w/v) were added and absorbance was measured at 600 nm (Tecan, Switzerland) and monitored for 18 h. Afterward, 100 µl per well were plated on LB agar to determine the numbers of viable bacteria microbiologically. Bactericidal activity is expressed as the LC99.9, the lowest concentration that killed ≥99.9 % of bacteria.

[2] = tested on: several pathogenic bacteria; assay: Radial diffusion assay, all tested strains; type: cell-based
Protocol: as §3

[3] = tested on: A. baumannii DSM30007 4-MRGN
Protocol: Bactericidal activity was assessed by broth microdilution assay. Log-phase bacteria were collected by centrifugation (2500 rpm, 10 min, 4 °C), washed twice with 10 mM sodium phosphate buffer containing 1% (w/v) TSB and the optical density at 600 nm was adjusted to 0.1. Approximately 5 × 10^5 CFU/ml bacteria were incubated with serial peptide concentrations (1.17–150 µM) in a final volume of 100 µl in 10 mM sodium phosphate buffer containing 1% (w/v) TSB for 2 h at 37 °C. After incubation, 100 µl of 6% TSB (w/v) were added and absorbance was measured at 600 nm (Tecan, Switzerland) and monitored for 18 h. Afterward, 100 µl per well were plated on LB agar to determine the numbers of viable bacteria microbiologically. Bactericidal activity is expressed as the LC99.9, the lowest concentration that killed ≥99.9 % of bacteria.

## CC(C)(O/N=C(\C(=O)N[C@@H]1C(=O)N2C(C(=O)[O-])=C(C[n+]3ccccc3)CS[C@H]12)c1csc(N)n1)C(=O)O [Ceftazidim]
A. baumannii; strain DSM30007
  MIC (antibiogram): ≥ 64 µg/mL
E. coli; strain DSM682
  MIC (antibiogram): ≥ 64 µg/mL
E. coli; strain DSM8695
  MIC (antibiogram): ≤ 1 µg/mL

## CC[C@H](C)CCCCC(=O)N[C@@H](CCN)C(=O)N[C@H](C(=O)N[C@@H](CCN)C(=O)N[C@H]1CCNC(=O)[C@H]([C@@H](C)O)NC(=O)[C@H](CCN)NC(=O)[C@H](CCN)NC(=O)[C@H](CC(C)C)NC(=O)[C@@H](CC(C)C)NC(=O)[C@H](CCN)NC1=O)[C@@H](C)O [Colistin] (X3-[Dab]T[Dab][Dab][Dab][dL]L[Dab][Dab]T; lactam 4-C (inferred); N-terminus assumed)
ESKAPE pathogens
  MIC (antibiogram): 1 µg/mL (≈ 0.855 µM)
K. pneumoniae
  MIC (antibiogram): 0.25 µg/mL (≈ 0.214 µM)

## RGKAKCCK [Octapeptide, the C-terminal eight amino acids of human β-defensin 1]
S. Typhimurium; experiment 1 of 3
  diameter of inhibition zone: 2.5 mm
S. Typhimurium; experiment 2 of 3
  diameter of inhibition zone: 2.5 mm
S. Typhimurium; experiment 3 of 3
  diameter of inhibition zone: 2.5 mm
S. Typhimurium
  inhibition of S. Typhimurium growth (in words): failed to inhibit
C. rodentium; experiment 1 of 3
  diameter of inhibition zone: 5.5 mm
C. rodentium; experiment 2 of 3
  diameter of inhibition zone: 5 mm
C. rodentium; experiment 3 of 3
  diameter of inhibition zone: 5.5 mm
S. aureus; experiment 1 of 3
  diameter of inhibition zone: 6 mm
S. aureus; experiment 2 of 3
  diameter of inhibition zone: 7 mm
S. aureus; experiment 3 of 3
  diameter of inhibition zone: 6.5 mm
P. aeruginosa; experiment 1 of 3
  diameter of inhibition zone: 3.5 mm
P. aeruginosa; experiment 2 of 3
  diameter of inhibition zone: 4 mm
P. aeruginosa; experiment 3 of 3
  diameter of inhibition zone: 4 mm

## CN(C)c1cc(NC(=O)CNC(C)(C)C)c(O)c2c1C[C@H]1C[C@H]3[C@H](N(C)C)C(O)=C(C(N)=O)C(=O)[C@@]3(O)C(O)=C1C2=O [Tigecycline]
A. baumannii; Acinetobacter baumannii, strain ECII
  MIC: 4 µg/mL (≈ 6.83 µM)
E. coli; strain DSM682
  MIC: ≤ 0.5 µg/mL
E. coli; strain DSM8695
  MIC: ≤ 0.5 µg/mL

## CCCCCCCCCCCCCCCC(=O)N[C@@H](CCCNC(=N)N)C(=O)NCC(=O)N[C@@H](CCCCN)C(=O)N[C@@H](C)C(=O)N[C@@H](CCCCN)C(=O)N[C@@H](CS)C(=O)N[C@@H](CS)C(=O)N[C@@H](CCCCN)C(=O)O [Pam-2] (Palmitoyl-RGKAKCCK-OH; C-terminus assumed)
S. Typhimurium
  inhibition of S. Typhimurium growth (in words): consistently inhibited
[1]
  bactericidal activity (in words): highly effective
[2]
  antimicrobial activity (in words): potent inhibition
[3]
  growth inhibition of colistin- and tigecycline-resistant isolate (in words): inhibited the growth
